Several values for one entry are separate records, joined by “and”; a condition that tells them apart may be missing. Equal entries are not always repeated. Where two headings read alike, the source gives them in different places.
Key:
SARS-CoV-2 M^pro = target: T1, SARS-CoV-2 M^pro (Severe acute respiratory syndrome coronavirus 2, UniProt P0DTD1); assay: SARS-CoV-2 M^pro inhibition assay (chromogenic peptide substrate); format: biochemical; conditions: for inhibition at 200 µM: read-out: effect at 200 μM (%); for obs.: observation at the end of the M^pro experiment; for solubility during the biological testing: result in words, M^pro testing; for IC50: M^pro, substrate 200 μM
T1 construct: 30 μL of Mpro enzyme (Sigma-Aldrich) at a final concentration of 10 μg/mL; purchased Sigma-Aldrich
Method: Inhibitory effects against M^pro of all compounds were evaluated based on the experimental procedure provided by the manufacturer with some modifications.
[…] of chemicals dissolved in DMSO, with a final concentration of 200 μM, were put in triplicate to each well of a 96-well flat bottom microplate. After that, the plate was incubated for 10 min at room temperature with 30 μL of Mpro enzyme (Sigma-Aldrich) at a final concentration of 10 μg/mL diluted in buffer containing 25 mM HEPES (Sigma-Aldrich) and 0.2% of Tween-20 (Sigma-Aldrich). Furthermore, the chromogenic peptide substrate (Thr-Ser-Ala-Val-Leu-Gln-pNA, Sigma-Aldrich) was added in a volume of 10 μL to each well, at a final concentration of 200 μM and incubated for another 45 min at 37 °C. […] As directed by the manufacturer, with minor modifications, the experiment was carried out to ascertain the half-maximum inhibitory concentration (IC50) that may block the activity of the M^pro enzyme. […] The plate was then kept at room temperature for 10 min. Following this time interval, 10 μL of a 200 μM final concentration of chromogenic peptide substrate (Sigma-Aldrich) was added to each well, and the mixture was incubated for an additional 45 min at 37 °C.

[1] = Cytotoxicity against THP-1 cells (resazurin); format: cell-based; conditions: human, THP-1 cells differentiated with PMA, read-out: CC50 ± SD (μM) THP-1
Method: (§1) In a 96-well flat bottom microplate, THP-1 cells (12 × 10^4 cells/well) were seeded with 180 μL of RPMI 1640 medium (Sigma-Aldrich) without phenol red supplemented with 10% FBS (Sigma-Aldrich), 2 mM L-glutamine (Gibco), […] (Sigma-Aldrich), 10 U/mL penicillin (Gibco), and 10 μg/mL streptomycin (Gibco) in the presence of 100 ng/mL of phorbol-12-myristate-13-acetate (PMA) (Sigma-Aldrich). The microplate was then incubated at 37 °C in a 5% CO2 atmosphere for 72 h. Vero cells ([…]) were seeded in 180 μL of RPMI 1640 media (Sigma-Aldrich), which was then supplemented with 10% FBS (Sigma-Aldrich), 10 U/mL penicillin (Gibco), and 10 μg/mL streptomycin (Gibco). The cells were then incubated for 24 h at 37 °C in a 5% CO2 environment. Each target chemical, diluted in RPMI-1640 media (Sigma-Aldrich) without FBS, at doses of 150, 50, 16.7, and 5.6 μM, was applied in 20 μL to each of the two cell lines. The positive and negative controls were 50 and 0.3% DMSO (Sigma-Aldrich), respectively. The plates were incubated in an environment containing 5% CO2 for 67 h at 37 °C. Next, 20 μL of resazurin (250 μg/mL) from Sigma-Aldrich was added, and the mixture was incubated at 37 °C for 5 h. The microplate was measured using a Tecan Model Infinite M200 spectrophotometer at 530 and 590 nm in wavelengths. Every experiment was run three times.[23],[24]

[2] = Cytotoxicity against Vero cells (resazurin); format: cell-based; conditions: African green monkey, read-out: CC50 ± SD (μM) Vero
Method: as §1

ZIKV NS2B/NS3 = target: T2, ZIKV NS2B/NS3 (Zika virus, UniProt Q32ZE1); assay: ZIKV NS2B/NS3 protease fluorogenic substrate assay; format: biochemical; conditions: for inhibition at 20 µM: read-out: screening at 20 μM (%); for inhibition at 100 µM: read-out: screening at 100 μM (%); for mechanism of inhibition: ZIKV NS2B/NS3, IC50 at four substrate concentrations, Dixon plots
T2 construct: tested against the nonstructural protease of ZIKV (NS2B/NS3)

DENV-2 NS2B/NS3 = DENV-2 NS2B/NS3 (Dengue virus type 2, UniProt P29990); assay: DENV-2 NS2B/NS3 protease fluorogenic substrate assay; conditions: for inhibition at 100 µM: read-out: screening at 100 μM (%), DENV-2 NS2B/NS3, 100 μM compound
[3] = inhibitory percentage against M^pro at 200 μM, NA: no activity
[4] = ZIKV NS2B/NS3, substrate 100 μM, read-out: IC50
[5] = IC50 at substrate 50 μM, binding mechanism study, Boc-Gly-Arg-Arg-AMC 50 μM
[6] = IC50 at substrate 100 μM, binding mechanism study, Boc-Gly-Arg-Arg-AMC 100 μM
[7] = IC50 at substrate 150 μM, binding mechanism study, Boc-Gly-Arg-Arg-AMC 150 μM
[8] = IC50 at substrate 200 μM, binding mechanism study, Boc-Gly-Arg-Arg-AMC 200 μM

T2 sequence (Q32ZE1 1421-1460): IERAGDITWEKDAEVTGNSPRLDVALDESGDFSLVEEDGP
T2 sequence (Q32ZE1 1499-1676): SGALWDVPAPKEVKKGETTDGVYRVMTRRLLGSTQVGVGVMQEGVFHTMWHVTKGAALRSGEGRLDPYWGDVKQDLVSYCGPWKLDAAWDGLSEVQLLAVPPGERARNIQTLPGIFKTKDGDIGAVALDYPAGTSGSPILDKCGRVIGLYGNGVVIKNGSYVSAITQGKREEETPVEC
Chain of DENV-2 NS2B/NS3 (P29990 1398-1437): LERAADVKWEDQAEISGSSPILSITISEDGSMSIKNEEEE
Chain of DENV-2 NS2B/NS3 (P29990 1476-1653): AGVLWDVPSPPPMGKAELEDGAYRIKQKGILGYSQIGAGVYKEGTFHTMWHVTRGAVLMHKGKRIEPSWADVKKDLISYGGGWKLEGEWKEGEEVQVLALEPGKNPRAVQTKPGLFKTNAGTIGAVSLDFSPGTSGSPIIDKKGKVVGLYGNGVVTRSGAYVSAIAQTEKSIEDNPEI

Compound	IC50 (SARS-CoV-2 M^pro)	CC50 at 67 h [1]	CC50 at 67 h [2]	inhibition at 200 µM (SARS-CoV-2 M^pro; [3])	inhibition at 20 µM (ZIKV NS2B/NS3; ZIKV NS2B/NS3, 20 μM compound)	inhibition at 100 µM (ZIKV NS2B/NS3; ZIKV NS2B/NS3, 100 μM compound)	IC50 (ZIKV NS2B/NS3; [4])	inhibition at 100 µM (DENV-2 NS2B/NS3)	also measured
CC1(C)CC[C@]2(C)CC=C3[C@]4(C)CC[C@H]5C(C)(C)[C@@H](O)CC[C@]5(C)[C@H]4CC[C@@]3(C)[C@@H]2C1 [Compound 1, taraxerol]	–	–	–	–	–	–	–	–	effect at 200 μM (%) (SARS-CoV-2 M^pro; [3]): 48.0%; inhibition at 200 µM (SARS-CoV-2 M^pro): 48%
CC1(C)CC[C@]2(C)CC=C3[C@]4(C)CC[C@H]5C(C)(C)C(=O)CC[C@]5(C)[C@H]4CC[C@@]3(C)[C@@H]2C1 [Compound 1a, taraxerone]	–	–	–	–	–	–	–	–	effect at 200 μM (%) (SARS-CoV-2 M^pro; [3]): 84.0%; obs. (SARS-CoV-2 M^pro): SP^#; inhibition at 200 µM (SARS-CoV-2 M^pro): 84%; solubility during the biological testing (SARS-CoV-2 M^pro): low solubility
COC(=O)c1cc(O)c(O)c(O)c1 [Compound 2, methyl gallate]	4.5 ± 1.8 µM	52.9 ± 19.2 µM	> 150 µM	–	–	–	–	–	effect at 200 μM (%) (SARS-CoV-2 M^pro; [3]): 68.0%; inhibition at 200 µM (SARS-CoV-2 M^pro): 68%
CC(C)OC(=O)c1cc(O)c(O)c(O)c1 [Compound 2a]	20.7 ± 8.2 µM	78.5 ± 8.1 µM	> 150 µM	78%	51 ± 3.4%	98 ± 0.5%	19.8 ± 0.5 µM	48 ± 1%	IC50 (DENV-2 NS2B/NS3; IC50 (μM), DENV-2 NS2B/NS3, substrate 100 μM): > 100 µM
CCCCCCCCCCCCCCOC(=O)c1cc(O)c(O)c(O)c1 [Compound 2b]	–	–	–	–	–	–	84.9 ± 9 µM	21 ± 3%	inhibition at 20 µM (ZIKV NS2B/NS3): 64 ± 2.5%; inhibition at 100 µM (ZIKV NS2B/NS3): 55 ± 2.3%
C=CCCOC(=O)c1cc(O)c(O)c(O)c1 [Compound 2c]	35.8 ± 4.5 µM	38.8 ± 4.4 µM	> 150 µM	80.4%	25 ± 2.6%	48 ± 2.2%	> 100 µM	18 ± 3%	–
C=CCOC(=O)c1cc(O)c(O)c(O)c1 [Compound 2d]	12.4 ± 2.4 µM	28.5 ± 3.2 µM	> 150 µM	94.3%	25 ± 2.2%	53 ± 1.7%	92.5 ± 3.1 µM	29 ± 1%	–
CC(C)CCOC(=O)c1cc(O)c(O)c(O)c1 [Compound 2e]	2.6 ± 1 µM	47 ± 6.5 µM	> 150 µM	99.5%	72 ± 3.1%	99 ± 0.2%	13 ± 0.4 µM	> 50%	–
CC(C)=CCCC(C)=CCOC(=O)c1cc(O)c(O)c(O)c1 [Compound 2f]	9.5 ± 1 µM	72.1 ± 7.3 µM	48.4 ± 13.2 µM	97%	–	99 ± 0.4%	2.7 ± 0.3 µM	> 50%	IC50 (ZIKV NS2B/NS3; [5]): 3.2 µM; IC50 (ZIKV NS2B/NS3; [6]): 3.04 µM; IC50 (ZIKV NS2B/NS3; [7]): 3.6 µM and 3.61 µM; IC50 (ZIKV NS2B/NS3; [8]): 3.78 µM; screening at 20 μM (%) (ZIKV NS2B/NS3; ZIKV NS2B/NS3, 20 μM compound): 98 ± 1.1%; mechanism of inhibition (ZIKV NS2B/NS3): noncompetitive; inhibition at 20 µM (ZIKV NS2B/NS3): 98%
CC(C)=CCCC(C)CCOC(=O)c1cc(O)c(O)c(O)c1 (centres unmarked) [Compound 2g]	88.7 ± 11.6 µM	32.1 ± 3.4 µM	82.1 ± 31.5 µM	73.3%	–	97 ± 1.1%	1.9 ± 0.1 µM	28 ± 2%	IC50 (ZIKV NS2B/NS3; [5]): 2.93 µM; IC50 (ZIKV NS2B/NS3; [6]): 2.48 µM; IC50 (ZIKV NS2B/NS3; [7]): 2.96 µM; IC50 (ZIKV NS2B/NS3; [8]): 2.03 µM; screening at 20 μM (%) (ZIKV NS2B/NS3; ZIKV NS2B/NS3, 20 μM compound): 99 ± 0.4%; mechanism of inhibition (ZIKV NS2B/NS3): noncompetitive; inhibition at 20 µM (ZIKV NS2B/NS3): 99%
O=C(OCCCc1ccccc1)c1cc(O)c(O)c(O)c1 [Compound 2h]	–	–	–	45.1%	–	99 ± 0.2%	4.8 ± 0.5 µM	20 ± 1%	screening at 20 μM (%) (ZIKV NS2B/NS3; ZIKV NS2B/NS3, 20 μM compound): 96 ± 0.4%; inhibition at 20 µM (ZIKV NS2B/NS3): 96%
C=CC(C)(CCC=C(C)C)OC(=O)c1cc(O)c(O)c(O)c1 (centres unmarked) [Compound 2i]	4 ± 0.9 µM	98.9 ± 5 µM	> 150 µM	80%	–	–	–	–	–
O=C(OCCc1ccccc1)c1cc(O)c(O)c(O)c1 [Compound 2j]	–	22.9 ± 3.2 µM	> 150 µM	60.8%	50 ± 3.8%	82 ± 2.7%	19.7 ± 2.1 µM	22 ± 1%	obs. (SARS-CoV-2 M^pro): SP^#; solubility during the biological testing (SARS-CoV-2 M^pro): solubility problems
CCC=CCCOC(=O)c1cc(O)c(O)c(O)c1 [Compound 2k]	–	–	–	41.9%	86 ± 0.8%	100 ± 0.1%	6.1 ± 0.6 µM	28 ± 4%	–
COC(=O)c1cc(OC)c(OC)c(OC)c1 [Compound 2l, Methyl 3,4,5-trimethoxybenzoate]	–	> 150 µM	> 150 µM	55.5%	–	–	–	–	obs. (SARS-CoV-2 M^pro): SP^#; solubility during the biological testing (SARS-CoV-2 M^pro): solubility problems
O=c1c2ccccc2[se]n1-c1ccccc1 [Ebselen, reference compound]	–	–	–	–	–	–	–	–	effect (%) of positive control (SARS-CoV-2 M^pro; Ebselen at 10 μM): 90%
methyl 3,5-dihydroxy-4-methoxybenzoate [Compound 2m]	–	–	–	–	–	–	–	–	effect at 200 μM (%) (SARS-CoV-2 M^pro; [3]): 44.2%
